Measurements: ChEMBL document CHEMBL1132621, “Synthesis, structure-activity relationships, and in vivo evaluations of substituted di-tert-butylphenols as a novel class of potent, selective, and orally active cyclooxygenase-2 inhibitors. 1. Thiazolone and oxazolone series” (J Med Chem, 1999)
pIC50: −log10 of the molar value.

How the values were obtained:
[1] = molecular target: T1, Prostaglandin G/H synthase 2 (Homo sapiens, UniProt P35354); test: IC50 against recombinant human Prostaglandin G/H synthase 2
T1 sequence (P35354 whole entry): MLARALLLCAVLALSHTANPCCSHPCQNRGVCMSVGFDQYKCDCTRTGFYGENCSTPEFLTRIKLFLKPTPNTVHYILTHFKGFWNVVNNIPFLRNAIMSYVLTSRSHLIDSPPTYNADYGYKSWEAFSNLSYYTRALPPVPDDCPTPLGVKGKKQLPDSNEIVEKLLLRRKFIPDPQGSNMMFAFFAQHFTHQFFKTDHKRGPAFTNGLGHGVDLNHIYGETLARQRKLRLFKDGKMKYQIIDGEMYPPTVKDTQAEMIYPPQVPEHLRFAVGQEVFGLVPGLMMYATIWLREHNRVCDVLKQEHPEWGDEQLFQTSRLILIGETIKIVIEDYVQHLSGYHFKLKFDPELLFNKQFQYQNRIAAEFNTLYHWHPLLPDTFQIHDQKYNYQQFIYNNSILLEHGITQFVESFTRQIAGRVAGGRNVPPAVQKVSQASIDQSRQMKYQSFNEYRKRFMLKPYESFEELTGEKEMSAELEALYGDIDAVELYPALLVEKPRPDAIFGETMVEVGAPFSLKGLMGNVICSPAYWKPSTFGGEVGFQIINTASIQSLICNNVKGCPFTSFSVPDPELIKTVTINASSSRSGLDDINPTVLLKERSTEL

[2] = molecular target: T2, Prostaglandin G/H synthase 1 (Ovis aries) (UniProt P05979); test: IC50 value against ovine Prostaglandin G/H synthase 1; Not active; conditions: concentration not given here
T2 sequence (whole entry): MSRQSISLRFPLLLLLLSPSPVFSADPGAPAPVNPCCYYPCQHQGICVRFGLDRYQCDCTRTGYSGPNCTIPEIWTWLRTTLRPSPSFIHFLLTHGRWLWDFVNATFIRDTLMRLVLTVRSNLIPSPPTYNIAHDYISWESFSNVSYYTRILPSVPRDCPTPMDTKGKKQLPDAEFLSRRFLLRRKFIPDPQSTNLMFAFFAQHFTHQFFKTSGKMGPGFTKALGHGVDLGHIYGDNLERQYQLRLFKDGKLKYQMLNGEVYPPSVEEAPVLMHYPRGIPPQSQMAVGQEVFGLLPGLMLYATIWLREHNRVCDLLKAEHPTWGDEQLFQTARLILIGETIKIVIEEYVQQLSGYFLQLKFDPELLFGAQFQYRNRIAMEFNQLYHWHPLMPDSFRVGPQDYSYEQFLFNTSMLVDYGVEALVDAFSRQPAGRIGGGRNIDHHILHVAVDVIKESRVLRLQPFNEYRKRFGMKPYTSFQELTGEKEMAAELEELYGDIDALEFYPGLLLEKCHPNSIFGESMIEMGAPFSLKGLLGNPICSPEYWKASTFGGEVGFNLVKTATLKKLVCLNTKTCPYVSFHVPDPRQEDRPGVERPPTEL

[3] = molecular target: T3, Prostaglandin G/H synthase 1 (Homo sapiens, UniProt P23219); test: IC50 value was determined against Prostaglandin G/H synthase 1 of human platelet rich plasma; Not active
T3 sequence (P23219 whole entry): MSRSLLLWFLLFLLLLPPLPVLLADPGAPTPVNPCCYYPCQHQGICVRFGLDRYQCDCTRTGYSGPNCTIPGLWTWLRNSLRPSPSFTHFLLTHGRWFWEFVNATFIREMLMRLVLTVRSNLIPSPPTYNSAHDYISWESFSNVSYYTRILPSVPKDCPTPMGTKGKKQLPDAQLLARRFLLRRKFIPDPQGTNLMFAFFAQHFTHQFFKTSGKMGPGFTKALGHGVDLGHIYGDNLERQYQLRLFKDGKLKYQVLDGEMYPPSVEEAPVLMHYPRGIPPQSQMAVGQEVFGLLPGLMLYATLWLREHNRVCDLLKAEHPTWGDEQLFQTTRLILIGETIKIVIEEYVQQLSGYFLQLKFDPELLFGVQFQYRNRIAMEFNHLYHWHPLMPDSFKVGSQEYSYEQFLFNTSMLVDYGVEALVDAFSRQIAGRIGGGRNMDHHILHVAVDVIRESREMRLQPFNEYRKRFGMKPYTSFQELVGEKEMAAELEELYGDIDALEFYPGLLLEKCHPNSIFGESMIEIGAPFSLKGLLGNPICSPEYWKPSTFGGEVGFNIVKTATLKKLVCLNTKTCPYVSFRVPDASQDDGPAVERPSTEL

[4] = molecular target: T4, Prostaglandin G/H synthase 2 (Mus musculus, UniProt Q05769)
T4 sequence (Q05769 whole entry): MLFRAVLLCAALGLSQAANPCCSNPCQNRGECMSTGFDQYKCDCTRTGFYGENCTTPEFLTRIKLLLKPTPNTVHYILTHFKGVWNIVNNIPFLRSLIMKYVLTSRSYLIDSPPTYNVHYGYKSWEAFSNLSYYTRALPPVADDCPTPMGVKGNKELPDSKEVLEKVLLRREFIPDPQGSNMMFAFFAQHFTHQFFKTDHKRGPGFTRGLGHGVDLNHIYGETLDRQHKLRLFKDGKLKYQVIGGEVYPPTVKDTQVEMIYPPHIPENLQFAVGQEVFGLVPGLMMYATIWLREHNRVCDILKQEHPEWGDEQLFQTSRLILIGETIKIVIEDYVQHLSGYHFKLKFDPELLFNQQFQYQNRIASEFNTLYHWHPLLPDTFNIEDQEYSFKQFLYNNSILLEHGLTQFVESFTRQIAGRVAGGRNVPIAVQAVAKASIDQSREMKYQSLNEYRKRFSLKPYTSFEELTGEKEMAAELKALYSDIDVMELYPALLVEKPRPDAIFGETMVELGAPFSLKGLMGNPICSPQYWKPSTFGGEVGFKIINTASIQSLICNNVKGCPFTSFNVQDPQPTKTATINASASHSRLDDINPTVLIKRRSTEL
Description: IC50 value was determined against Prostaglandin G/H synthase 2 of J7744A.1 cell lines.

[5] = molecular target: T3, Prostaglandin G/H synthase 1; test: (§1) IC50 against Prostaglandin G/H synthase 1 from human platelet rich plasma
[6] = molecular target: T5, Prostaglandin G/H synthase 1 (Ovis aries, UniProt P05979)
T5 sequence (P05979 whole entry): T2 sequence (whole entry)
Description: IC50 against ovine Prostaglandin G/H synthase 1

Rattus norvegicus [7] = species on record: Rattus norvegicus; test: ED50 measured by CFE assay; type: functional
Mus musculus = species on record: Mus musculus; test: ED50 measured by hyperalgesia assay; type: functional
Rattus norvegicus [8] = species on record: Rattus norvegicus; test: Percentage of gastric damage was measured in rats.; type: functional, Stomach
Rattus norvegicus [9] = species on record: Rattus norvegicus; test: Lesion frequency measured in rats; type: functional
Rattus norvegicus [10] = species on record: Rattus norvegicus; test: Percentage inhibition of the prostaglandin synthesis was measured in rats.; type: functional
[11] = molecular target: T3, Prostaglandin G/H synthase 1; test: as §1
[12] = molecular target: T2, Prostaglandin G/H synthase 1 (Ovis aries); test: IC50 value against ovine Prostaglandin G/H synthase 1 at 10 uM

Compound	pIC50 [1]	pIC50 [4]	pIC50 [5]	pIC50 [6]	other results
CCONC1=NC(=O)/C(=C/c2cc(C(C)(C)C)c(O)c(C(C)(C)C)c2)S1	5.49	6.57	–	–	inhibition [2]: < 20%; pIC50 [3]: < 4.70
CC(C)(C)c1cc(/C=C2\OC(=O)NC2=O)cc(C(C)(C)C)c1O	4.47	7.15	5.92	7.02	–
C/C(=C1/SC(N=C(N)N)=NC1=O)c1cc(C(C)(C)C)c(O)c(C(C)(C)C)c1	4.92	6.74	6.23	6.34	–
CCONC1=NC(=O)/C(=C/c2cc(C(C)(C)C)c(O)c(C(C)(C)C)c2)O1	4.10	6.19	< 4.70	5.46	–
COc1ccc2c(c1)c(CC(=O)O)c(C)n2C(=O)c1ccc(Cl)cc1 [INDOMETHACIN]	–	–	–	–	ED40 (Rattus norvegicus [7]): 1.6 mg/kg; ED40 (Mus musculus): 0.6 mg/kg; Gastric damage (Rattus norvegicus [8]): 0.18%; Lesion frequency (Rattus norvegicus [9]): 75%; Inhibition (Rattus norvegicus [10]): 96.5%
CC(C)c1cc(/C=C2\SC(N=C(N)N)=NC2=O)cc(C(C)C)c1O	5.74	6.72	–	6.66	pIC50 [11]: 5.57
CONC1=NC(=O)/C(=C/c2cc(C(C)C)c(O)c(C(C)C)c2)S1	6.24	< 4.70	–	< 4.70	pIC50 [11]: < 4.70
CONC1=NC(=O)/C(=C/c2cc(C(C)(C)C)c(O)c(C(C)(C)C)c2)S1.C[N+](C)(C)CC[O-]	–	–	–	–	ED40 (Rattus norvegicus [7]): 15.7 mg/kg; ED40 (Mus musculus): 0.1 mg/kg; Gastric damage (Rattus norvegicus [8]): 0%; Lesion frequency (Rattus norvegicus [9]): 0%; Inhibition (Rattus norvegicus [10]): 32.8%
C=CCONC1=NC(=O)/C(=C/c2cc(C(C)(C)C)c(O)c(C(C)(C)C)c2)S1	5.57	5.80	–	–	inhibition [2]: < 20%; pIC50 [3]: < 4.70
CS(=O)(=O)c1ccc(-n2nc(C(F)(F)F)cc2-c2ccc(F)cc2)cc1 [SC-58125]	–	–	–	–	inhibition [12]: < 20%; ED40 (Rattus norvegicus [7]): > 30 mg/kg; ED40 (Mus musculus): 0.3 mg/kg; Gastric damage (Rattus norvegicus [8]): 0%; Lesion frequency (Rattus norvegicus [9]): 0%; Inhibition (Rattus norvegicus [10]): -1.58%
CONC1=NC(=O)/C(=C/c2cc(C(C)(C)C)c(O)c(C(C)(C)C)c2)S1	5.77	6.77	–	–	pIC50 [3]: < 4.70
CC(C)(C)c1cc(/C=C2\SC(=O)NC2=O)cc(C(C)(C)C)c1O	5.33	7.22	5.03	4.38	–
CC(C)(C)c1cc(/C=C2\SC(NO)=NC2=O)cc(C(C)(C)C)c1O	5.82	6.77	–	4.28	pIC50 [11]: 5.04
CC(C)(C)c1cc(/C=C2\NC(=S)NC2=O)cc(C(C)(C)C)c1O	6.59	7.08	6.00	5.89	–
